Each structure is given as a SMILES string.

This test has as its target embryonic ectoderm development (EED) (Homo sapiens, UniProt O75530).

Chain of embryonic ectoderm development (EED) (O75530 2-441): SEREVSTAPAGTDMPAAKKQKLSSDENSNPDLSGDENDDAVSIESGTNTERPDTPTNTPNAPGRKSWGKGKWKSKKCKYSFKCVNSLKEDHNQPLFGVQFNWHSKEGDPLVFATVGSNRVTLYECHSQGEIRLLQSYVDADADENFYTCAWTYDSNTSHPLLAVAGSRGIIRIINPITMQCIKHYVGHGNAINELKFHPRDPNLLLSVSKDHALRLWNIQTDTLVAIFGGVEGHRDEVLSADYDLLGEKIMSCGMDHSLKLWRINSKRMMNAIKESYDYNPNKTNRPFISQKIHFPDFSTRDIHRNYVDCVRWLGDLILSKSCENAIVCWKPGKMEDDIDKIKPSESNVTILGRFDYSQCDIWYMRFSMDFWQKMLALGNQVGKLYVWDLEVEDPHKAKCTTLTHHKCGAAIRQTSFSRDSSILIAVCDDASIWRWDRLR

For `CCOP(=O)(OCC)C(NC(=O)[C@H](Cc1ccc(-c2ccccc2)cc1)NC(=O)/C=C/c1ccc(-c2ccccc2)cc1)P(=O)(OCC)OCC` [LG1980], the Kd – broadly, a measure of binding affinity in units of concentration – was 2.71 µM.

Source of the values: article PMC8171087, “Pharmacological inhibition of noncanonical EED-EZH2 signaling overcomes chemoresistance in prostate cancer” (Theranostics, 2021).
